Experimental findings from patent publication US12304909B2, “Compounds and their use in therapy” (IMPERIAL COLLEGE INNOVATIONS LIMITED, priority 2018, dated 2025) are described below.

Each structure is given as a SMILES string.

Series [1] in a line: Human liver microsomes half life. The class given is in vitro ADME. To be noted: pH 7.4, read-out: Human liver microsomes t ½. On the procedure:
Example Compound 1 was tested for metabolic stability in an assay using human liver microsomes. Comparative Examples 2, 3, 4, 5 and 6 were also tested in the same assay. Compounds having good metabolic stability in the assay are expected to be especially useful as agents for preventing and/or treating cancer, by having a long half-life in human patients
Frozen human liver microsomes obtained from Corning, USA (cat #452117) were thawed and diluted with 100 mM of pH 7.4 phosphate buffer to give a 1 mg/ml solution. An NADPH regeneration system (NRS) was prepared as a solution containing 13 mM NADP, 33 mM glucose-6-phosphate, 33 mM MgCl2 and 4U/mL glucose-6-phosphate dehydrogenase in 100 mM of pH7.4 phosphate buffer. The test compound (4 mM) in DMSO was diluted with acetonitrile to provide a 100 μM sub-stock then further diluted with 100 mM of pH7.4 phosphate buffer to provide a 2 μM working solution. The liver microsome solution and NRS were incubated at 37° C. before use. To each well of the test plate was dispensed 60 μL of buffer, 50 μL of test compound solution and 10 μL of NRS. A reaction was initiated by addition of 40 μL of liver microsome solution. Wells were incubated for an appropriate time (0, 5, 10, 20, 30 and 60 min) then quenched with 300 μL of acetonitrile containing reference standards atenolol, propranolol, diclofenac, verapamil). All plates were centrifuged at 3500 rpm for 20 min at 15° C. to pellet the debris. 110 μL supernatant was diluted 110 μL water and quantitated using LC-MS/MS.
The results were used to calculate the % Remaining of the test compound at time point t=100×˜[(AUC at time point t)/(AUC at T=0)]. A linear regression curve was fitted to a plot of natural logarithm (In) of AUC against time. The T-half (min)=0.693/slope.

A further series in a line: Rat half life in vivo. To be noted: plasma; rat oral half-life; male Sprague-Dawley rats, 3 mg/kg oral gavage; read-out: Rat or mouse t ½ (rat) (converted). On the procedure: Example Compound 1, and Comparative Examples 2 and 3 were tested for metabolic stability in male Sprague-Dawley rats. Comparative Example 5 was tested for metabolic stability in male CD-1 mice. Compounds having good metabolic stability in rats or mice are expected to be especially useful as agents for preventing and/or treating cancer, by having a long half-life in human patients.
Male Sprague-Dawley rats were fasted for 4 h before dosing. Groups of 3 rats were dosed with Example Compound 1, Comparative Example 2, or Comparative Example 3 • (i) intravenously at a dose of 1 mg/kg using a dose volume 2 mL/kg where the animals are anaesthetized using 3% v/v isoflurane:oxygen mixture and dose administered through lateral tail vein; or • (ii) orally by gavage (OG) at a dose of 3 mg/kg using a dose volume 5 ml/kg to conscious animals.
˜100 μL blood sample were collected after 5 min, 15 min, 30 min, 1 h, 2 h, 4 h, 8 h and 24 h (intravenous) and 15 min, 30 min, 1 h, 2 h, 4 h, 8 h and 24 h (oral) and transferred to heparinized capillary tubes, and subsequently into 0.5 mL microcentrifuge tubes. All blood samples are processed for plasma by centrifugation at 1640×g for 5 min at 4° C. within half an hour of collection. Plasma samples were stored at −20° C. until all samples were collected. All samples were mixed with ice-cold acetonitrile containing an internal standard (IS) in 1:4 v/v and centrifuged at 4000 rpm for 15 min at 15° C. Supernatant was then half diluted in water and loaded for LCMS/MS analysis. Analyte peak area/IS peak area (the ratio) was considered for further data analysis as described below.
Calibration curve and QC samples: Compound stock was prepared and further serial dilutions were carried out. The samples were spiked in blank plasma (1:50). Calibration curve ranged from 1 to 1250 ppb. Three quality control samples were also prepared-high QC (HQC), Mid QC (MQC and Low QC (LQC).

The nature of the next series: Rat hepatocyte half life. To be noted: pooled cryopreserved rat hepatocytes, pH 7.4; pooled male Sprague-Dawley rat hepatocytes; read-out: Rat Hepatocyte t ½. It is filed as in vitro ADME, Sprague-Dawley rats. On the procedure: Example Compound 1 was tested for metabolic stability in rat metabolic assays using hepatocytes derived from pooled male Sprague-Dawley rats. Comparative Examples 2, 3 and 4 were also tested in the same assay. Compounds having good metabolic stability in the assay are expected to be especially useful as agents for preventing and/or treating cancer, by having a long half-life in human patients.
Frozen pooled rat hepatocytes obtained from LifeTechnologies were thawed and purified according to the manufacturer's instructions. The test compound (4 mM) in DMSO was diluted with acetonitrile to provide a 100 μM sub-stock then further diluted with pH7.4 Krebs-Henseleit buffer supplemented with CaCl2), NaHCO3, HEPES, fructose and glycine) to provide a 2 μM working solution. 25 μL of working solution was incubated at 37° C., treated with 25 μL of rat hepatocyte suspension (containing 1×10^6 cells/mL) and incubated at 37° C. with 5% CO2 level at 95% relative humidity. Wells were incubated for an appropriate time (0, 15, 30, 45, 60 and 75 min) then quenched with 250 μL of acetonitrile containing reference standards diltiazem, 7-ethoxycoumarin and propranolol). The plates were shaken, sonicated for 5 min then cooled to 4° C. until all sampling was complete. All plates were centrifuged at 4000 rpm for 20 min to pellet the debris. 110 μl supernatant was diluted 110 μL water and quantitated using LC-MS/MS.
The results were used to calculate the % Remaining of the test compound at time point t=100×˜[(AUC at time point t)/(AUC at T=0)]. A linear regression curve was fitted to a plot of natural logarithm (In) of AUC against time. The T-half (min)=0.693/slope

For `CNC(=O)c1nn(C)c(C)c1CCOc1cc(F)ccc1-c1ccc2ncc(CCN)n2c1` [Comparative Example 2, 4-(2-{2-[3-(2-aminoethyl)imidazo[1,2-a]pyridin-6-yl]-5-fluorophenoxy}ethyl)-N,1,5-trimethyl-1H-pyrazole-3-carboxamide], the half-life at 0.625 µM in series [1] was 1.95 h. The half-life in the series “Rat half life in vivo” was 8.3 h. For the same compound, in “Rat hepatocyte half life”, the half-life at 1 µM is 1.35 h.
The corresponding values for `CNCCc1cnc2ccc(-c3ccc(F)cc3OCCc3c(C)nn(C)c3C)cn12` [Comparative Example 3, [2-(6-{4-fluoro-2-[2-(1,3,5-trimethyl-1H-pyrazol-4-yl)ethoxy]phenyl}imidazo[1,2-a]pyridin-3-yl)ethyl](methyl)amine] are 0.617 h, 4.5 h and 0.767 h.
On to `Cc1c(CCOc2cc(Cl)ccc2-c2ccc3ncc(CCN)n3c2)c(C(=O)N(C)C)nn1C` [Example Compound 1, 4-(2-{2-[3-(2-aminoethyl)imidazo[1,2-a]pyridin-6-yl]-5-chlorophenoxy}ethyl)-N,N,1,5-tetramethyl-1H-pyrazole-3-carboxamide], for which the half-life at 0.625 µM in series [1] was determined as 1.12 h. Further, the half-life in the series “Rat half life in vivo” is 7.1 h. Further, the half-life at 1 µM in “Rat hepatocyte half life” is 1.33 h.
